Tested on: TILs of patient CTE-0009
Test: IFNγ-ELISPOT of TILs from draining lymph nodes, patient CTE-0009
Assay type: cell-based, human
Details: FIG. 5; day 14; conventional and primed cultures from draining lymph nodes
Procedure: Both “conventional” and “primed” TILs of patient CTE-0009 were generated from a single cell suspension of draining lymph nodes, following the methods described herein. Each culture was interrogated at day 14 by IFNγ-ELISPOT for the presence of neo-antigen T cell reactivities directed against one of the 4 predicted peptides and against the corresponding wild-type (wt) peptides. […] PHA was used at 1 μg/ml.
T cell reactivity against predicted neo-antigens was tested by IFNγ ELISpot on pre-REP TILs. Positivity was confirmed in ≥2 independent experiments.

## TPINPRRCL [wt]
  neo-antigen T cell reactivities directed against the peptide: not
